The record followed here is patent publication US12331022B2, “Spiropiperidine allosteric modulators of nicotinic acetylcholine receptors” (Merck Sharp & Dohme LLC, priority 2019, dated 2025).

The structures appear in SMILES notation. Like-named read-outs stand apart in the source and are kept apart here.

This experiment deals with T1, human α7 nAChR (Homo sapiens, UniProt P36544).
T1 construct: host or cells: HEK
Put plainly: Automated patch-clamp electrophysiology functional assay (Assay A). Type of experiment: cell-based. As to conditions: HEK cell line stably expressing human RIC-3 and human α7, IonFlux HT whole-cell population patch, with or without 40 μM acetylcholine. On the procedure: The α7 nAChR positive allosteric modulator (PAM) activity of the present compounds may be tested using assays known in the art. The α7 nAChR PAMs described herein have activities in an automated patch-clamp electrophysiology functional assay as described in the examples. The assay was performed using the IonFlux HT in a whole-cell, population patch configuration. See Golden et al. Assay Drug Dev. Technol. (2011) 9:608-619. The compounds were assessed for their ability to modulate the function of the human α7 nAChR stably expressed in a HEK cell line both in the presence, and in the absence of the natural α7 agonist acetylcholine. By performing a series of such measurements at different concentrations, the effective concentration of the α7 nAChR PAMs (EC50) was determined. See Spencer et al. Assay Drug Dev. Technol. (2012) 10:313-324.
Direct activation of α7 (agonism), and potentiation of acetylcholine-evoked α7 currents was determined as follows:
Automated patch-clamp electrophysiology was performed using the IonFlux HT (Fluxion Biosciences Inc., San Francisco, CA) in the whole-cell, population patch configuration. Test compounds were assessed for their ability to modulate the function of the α7 nicotinic acetylcholine receptor both in the presence, and in the absence of the natural α7 agonist acetylcholine. A HEK cell line stably expressing both human RIC-3 and human α7 (PrecisION hnAChR α7/RIC-3, Eurofins Pharma, St. Charles, MO) was cultured in 175 cm^2 triple-layer tissue culture flasks to no more than 90% confluency in DMEM/F-12 growth media supplemented with 10% heat-inactivated fetal bovine serum, 1% non-essential amino acids, 0.625 μg/mL Puromycin, and 400 μg/mL Geneticin. Immediately prior to assay, cells were detached by first aspirating growth media, rinsing with Dulbecco's phosphate buffered saline, and then adding 10 mL of Accutase (Innovative Cell Technologies, San Diego, CA) to the flask and then incubating at 37° C. for 5 minutes. Detached cells were then recovered by the addition of 40 mL of CHO-serum-free media supplemented with 25 mM HEPES, and rocked gently in a 50 mL conical tube for 20 minutes prior to patch-clamp assay. After recovery, cells were pelleted by centrifugation at 1,000 RPM for 1 minute in a compact bench top centrifuge; recovery media was aspirated and cells were resuspended in external recording solution (150 mM NaCl, 5 mM KCl, 2 mM CaCl2, 1 mM MgCl2, 10 mM HEPES, 12 mM dextrose) to a density of 5.0×10^6 cells/mL. The cell suspension was added to the cell inlet wells on an IonFlux HT population patch plate which had previously been rinsed and primed with deionized H2O. Test compounds were serially diluted in DMSO and then resuspended to the final test concentration in external recording solution, with, or without 40 μM acetylcholine added to the external recording solution; test compounds were then transferred to the IonFlux HT population patch plate. Internal recording solution (110 mM TrisPO4, 28 mM TrisBase, 0.1 mM CaCl2, 2 mM MgCl2, 11 mM EGTA, 4 mM MgATP) was added to the internal recording solution inlet wells on the IonFlux HT patch plate previously loaded with cells and test compounds, and the plate loaded into the IonFlux HT instrument. A protocol was executed on the IonFlux HT to trap the cells, break into the cells, and establish the whole-cell recording configuration; cells were voltage-clamped at a holding potential of −60 mV for the duration of the experiment, all experiments were conducted at room temperature, and the IonFlux HT injection pressure was 8 psi for solution applications. Upon establishing the whole-cell configuration, external recording solution was perfused into the recording chambers for 120 seconds and then 40 μM acetylcholine was applied for 1 second and immediately washed off with external recording solution for 60 seconds. […]
For orientation: In patch-clamp work, channel activity is measured electrically.

T1 sequence (P36544 23-502): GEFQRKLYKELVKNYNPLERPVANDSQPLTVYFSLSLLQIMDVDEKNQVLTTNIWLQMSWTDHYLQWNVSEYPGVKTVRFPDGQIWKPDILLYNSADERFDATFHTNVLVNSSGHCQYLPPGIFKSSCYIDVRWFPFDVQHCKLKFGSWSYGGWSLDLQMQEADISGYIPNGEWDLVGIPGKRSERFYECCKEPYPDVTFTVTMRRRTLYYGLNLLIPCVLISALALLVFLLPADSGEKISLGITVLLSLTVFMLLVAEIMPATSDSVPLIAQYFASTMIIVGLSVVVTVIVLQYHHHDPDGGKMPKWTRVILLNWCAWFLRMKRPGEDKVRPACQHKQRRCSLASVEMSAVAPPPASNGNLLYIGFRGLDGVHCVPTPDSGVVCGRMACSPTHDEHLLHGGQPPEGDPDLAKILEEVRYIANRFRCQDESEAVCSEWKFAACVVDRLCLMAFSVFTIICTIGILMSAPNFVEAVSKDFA

As for `NS(=O)(=O)N1CCC2(CC1)CC2COc1cc(F)ccc1C(F)(F)F` (single isomer, unassigned) [Example A15, 1-{[5-fluoro-2-(trifluoromethyl)phenoxy]methyl}-6-azaspiro[2.5]octane-6-sulfonamide], the EC50 reads like this: (read-out: α7 nAChR EC50) 0.47 µM; (read-out: α7 nAChR Potency) 0.1 to 0.5 µM.
The corresponding values for `Cc1cc(C)n(-c2cccc(OC[C@H]3CC34CCN(S(N)(=O)=O)CC4)n2)n1` [Example A20, (1S)-1-({[6-(3,5-dimethyl-1H-pyrazol-1-yl)pyridin-2-yl]oxy}methyl)-6-azaspiro[2.5]octane-6-sulfonamide] are 1.8 µM and 0.5 to 5 µM.
`COc1cc(OC[C@H]2CC23CCN(S(N)(=O)=O)CC3)nc(OCC(F)(F)F)c1` [Example A16, (1S)-1-({[4-methoxy-6-(2,2,2-trifluoroethoxy)pyridin-2-yl]oxy}methyl)-6-azaspiro[2.5]octane-6-sulfonamide]: the EC50 was 0.19 µM (read-out: α7 nAChR EC50) and 0.1 to 0.5 µM (read-out: α7 nAChR Potency).
On the same counts, the results for `NS(=O)(=O)N1CCC2(CC1)C[C@@H]2COc1cccc(OC(F)(F)F)c1` [Example A25, (1S)-1-{[3-(trifluoromethoxy)phenoxy]methyl}-6-azaspiro[2.5]octane-6-sulfonamide] are 1.9 µM and 0.5 to 5 µM.
The corresponding values for `NS(=O)(=O)N1CCC2(CC1)C(COc1ccc(F)cc1C(F)(F)F)C2(F)F` (single isomer, unassigned) [Example A10, 1,1-difluoro-2-{[4-fluoro-2-(trifluoromethyl)phenoxy]methyl}-6-azaspiro[2.5]octane-6-sulfonamide] are 1.5 µM and 0.5 to 5 µM.
Consider `NS(=O)(=O)N1CCC2(CC1)C[C@H]2COc1cccc(OCC2CC2)n1` [Example A17, (1R)-1-({[6-(cyclopropylmethoxy)pyridin-2-yl]oxy}methyl)-6-azaspiro[2.5]octane-6-sulfonamide], for which the EC50 reads like this: (read-out: α7 nAChR EC50) 0.13 µM; (read-out: α7 nAChR Potency) 0.1 to 0.5 µM.
As to `COc1ccc(F)c(OCC2CC23CCN(S(N)(=O)=O)CC3)c1` (racemic) [Example A26, 1-[(2-fluoro-5-methoxyphenoxy)methyl]-6-azaspiro[2.5]octane-6-sulfonamide], the EC50 reads like this: (read-out: α7 nAChR EC50) 0.65 µM; (read-out: α7 nAChR Potency) 0.5 to 5 µM.
As for `NS(=O)(=O)N1CCC2(CC1)CC2COc1ccnc(C(F)(F)F)c1` (centres unmarked) [Example 5, 1-({[2-(Trifluoromethyl)pyridin-4-yl]oxy}methyl)-6-azaspiro[2.5]octane-6-sulfonamide], the EC50 is 3.2 µM (read-out: α7 nAChR EC50) and 0.5 to 5 µM (read-out: α7 nAChR Potency).
As to `NS(=O)(=O)N1CCC2(CC1)C[C@H]2COc1cccc(-c2ccncc2)n1` [Example A58, (1R)-1-[(2,4′-bipyridin-6-yloxy)methyl]-6-azaspiro[2.5]octane-6-sulfonamide], the EC50 (read-out: α7 nAChR Potency) is 0.5 to 5 µM.
Turning to `NS(=O)(=O)N1CCC2(CC1)C[C@H]2COc1cccc(NCC(F)(F)F)n1` [Example 10, (1R)-1-[({6-[(2,2,2-Trifluoroethyl)amino]pyridin-2-yl}oxy)methyl]-6-azaspiro[2.5]octane-6-sulfonamide], the EC50 reads like this: (read-out: α7 nAChR EC50) 0.074 µM; (read-out: α7 nAChR Potency) not above 0.1 µM.
Consider `NS(=O)(=O)N1CCC2(CC1)C(CSc1nnnn1-c1ccccc1)C2(F)F` (single isomer, unassigned) [Example A61, 1,1-difluoro-2-{[(1-phenyl-1H-tetrazol-5-yl)sulfanyl]methyl}-6-azaspiro[2.5]octane-6-sulfonamide], for which the EC50 runs as follows: (read-out: α7 nAChR EC50) 1.3 µM; (read-out: α7 nAChR Potency) 0.5 to 5 µM.
Turning to `CC(C)(C)c1cccc(OC[C@@H]2CC23CCN(S(N)(=O)=O)CC3)n1` [Example A55, (1R)-1-{[(6-tert-butylpyridin-2-yl)oxy]methyl}-6-azaspiro[2.5]octane-6-sulfonamide], the EC50 (read-out: α7 nAChR Potency) was 0.5 to 5 µM.
For the compound `NS(=O)(=O)N1CCC2(CC1)C[C@H]2COc1cccc(OCC(F)(F)F)n1` [Example A37, (1R)-1-({[6-(2,2,2-trifluoroethoxy)pyridin-2-yl]oxy}methyl)-6-azaspiro[2.5]octane-6-sulfonamide], the EC50 by setting is: (read-out: α7 nAChR EC50) 0.074 µM; (read-out: α7 nAChR Potency) not above 0.1 µM.
Regarding `NS(=O)(=O)N1CCC2(CC1)C(COc1ccnc(OCC(F)(F)F)c1)C2(F)F` (single isomer, unassigned) [Example A34, 1,1-difluoro-2-({[2-(2,2,2-trifluoroethoxy)pyridin-4-yl]oxy}methyl)-6-azaspiro[2.5]octane-6-sulfonamide], the EC50 was 0.55 µM (read-out: α7 nAChR EC50) and 0.5 to 5 µM (read-out: α7 nAChR Potency).
`NS(=O)(=O)N1CCC2(CC1)C(COc1noc(-c3ccccc3)n1)C2(F)F` (single isomer, unassigned) [Example A21, 1,1-difluoro-2-{[(5-phenyl-1,2,4-oxadiazol-3-yl)oxy]methyl}-6-azaspiro[2.5]octane-6-sulfonamide]: the EC50 is, setting by setting: (read-out: α7 nAChR EC50) 1.1 µM; (read-out: α7 nAChR Potency) 0.5 to 5 µM.
`COc1ccc(Cl)cc1SC[C@@H]1CC12CCN(S(N)(=O)=O)CC2` [Example 11, (1R)-1-{[(5-Chloro-2-methoxyphenyl)sulfanyl]methyl}-6-azaspiro[2.5]octane-6-sulfonamide]: the EC50 was 0.052 µM (read-out: α7 nAChR EC50) and not above 0.1 µM (read-out: α7 nAChR Potency).
As to `NS(=O)(=O)N1CCC2(CC1)C[C@H]2COCc1cccc(OCC(F)(F)F)n1` [Example 9, (1R)-1-({[6-(2,2,2-Trifluoroethoxy)pyridin-2-yl]methoxy}methyl)-6-azaspiro[2.5]octane-6-sulfonamide], the EC50 reads like this: (read-out: α7 nAChR EC50) 1.2 µM; (read-out: α7 nAChR Potency) 0.5 to 5 µM.
In the case of `COc1ccc(Cl)cc1NC[C@@H]1CC12CCN(S(N)(=O)=O)CC2` [Example 14, (1R)-1-{[(5-Chloro-2-methoxyphenyl)amino]methyl}-6-azaspiro[2.5]octane-6-sulfonamide], the EC50 runs as follows: (read-out: α7 nAChR EC50) 0.048 µM; (read-out: α7 nAChR Potency) not above 0.1 µM.
For `NS(=O)(=O)N1CCC2(CC1)C(COc1cccnc1OCC(F)(F)F)C2(F)F` (single isomer, unassigned) [Example A35, 1,1-difluoro-2-({[2-(2,2,2-trifluoroethoxy)pyridin-3-yl]oxy}methyl)-6-azaspiro[2.5]octane-6-sulfonamide], the EC50 (read-out: α7 nAChR EC50) is 0.54 µM and the EC50 (read-out: α7 nAChR Potency) lay within 0.5 to 5 µM.
With `NS(=O)(=O)N1CCC2(CC1)C(COc1cccc(OCC(F)(F)F)n1)C2(F)F` (single isomer, unassigned) [Example A41, 1,1-difluoro-2-({[6-(2,2,2-trifluoroethoxy)pyridin-2-yl]oxy}methyl)-6-azaspiro[2.5]octane-6-sulfonamide], the EC50 (read-out: α7 nAChR Potency) lay in the range of 0.1 to 0.5 µM.
Take `COc1ccc(F)c(OCC2C(F)(F)C23CCN(S(N)(=O)=O)CC3)c1` (single isomer, unassigned) [Example A31, 1,1-difluoro-2-[(2-fluoro-5-methoxyphenoxy)methyl]-6-azaspiro[2.5]octane-6-sulfonamide]: the EC50 (read-out: α7 nAChR Potency) is not above 0.1 µM.
As for `COc1ccccc1NC(=O)[C@@H]1CC12CCN(S(N)(=O)=O)CC2` [Example B1, (1R)—N-(2-methoxyphenyl)-6-sulfamoyl-6-azaspiro[2.5]octane-1-carboxamide], the EC50 was 1.4 µM (read-out: α7 nAChR EC50) and 0.5 to 5 µM (read-out: α7 nAChR Potency).
As to `NS(=O)(=O)N1CCC2(CC1)C(CCc1ccc(F)cc1C(F)(F)F)C2(F)F` (centres unmarked) [Example 18, 1,1-Difluoro-2-{2-[4-fluoro-2-(trifluoromethyl)phenyl]ethyl}-6-azaspiro[2.5]octane-6-sulfonamide], the EC50 (read-out: α7 nAChR Potency) fell in the range of 5 to 50 µM.
